Assay results taken from PMC10782561 (Chemico-biological interactions, 2023).
Read-outs that look alike come from different tables or passages of the source.

Tests used:
[1] = format: in vivo, human
[2] = target: human CYP1A2 (Homo sapiens, UniProt P05177); test: Phe inhibition of human CYP1A2, P450-Glo assay; format: biochemical
[3] = test system: Salmonella strains TA100, TA 97a, TA98 and TA102; details: cited from earlier work
[4] = [14C]-BaP metabolite in human plasma, 0-48 h, BaP + Phe dose, mean ± SD
[5] = [14C]-BaP metabolite in human plasma, 0-48 h, BaP only dose, mean ± SD
[6] = [14C]-BaP metabolite in human plasma, BaP + Phe dose, mean ± SD
[7] = [14C]-BaP metabolite in human plasma, BaP only dose, mean ± SD

Chain of human CYP1A2 (P05177 whole entry): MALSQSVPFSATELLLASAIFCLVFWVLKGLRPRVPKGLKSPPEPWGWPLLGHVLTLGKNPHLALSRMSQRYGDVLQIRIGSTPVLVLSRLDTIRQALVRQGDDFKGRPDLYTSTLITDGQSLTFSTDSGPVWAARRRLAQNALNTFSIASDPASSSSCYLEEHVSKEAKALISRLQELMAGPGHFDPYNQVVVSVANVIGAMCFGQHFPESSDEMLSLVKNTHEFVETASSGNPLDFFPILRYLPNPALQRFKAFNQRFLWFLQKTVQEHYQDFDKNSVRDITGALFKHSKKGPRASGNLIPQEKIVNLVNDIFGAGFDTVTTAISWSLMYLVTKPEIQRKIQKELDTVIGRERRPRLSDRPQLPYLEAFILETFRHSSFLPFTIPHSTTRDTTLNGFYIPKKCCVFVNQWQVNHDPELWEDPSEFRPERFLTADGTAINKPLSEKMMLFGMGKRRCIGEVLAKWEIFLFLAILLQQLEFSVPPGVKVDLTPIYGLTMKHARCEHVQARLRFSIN

Row | SMILES | AUC [1, 4] | AUC [1, 5] | AUC(0,∞) [1, 6] | Cmax [1, 6] | T1/2 [1, 6] | Tmax [1, 6] | AUC(0,∞) [1, 7] | Cmax [1, 7] | T1/2 [1, 7] | Tmax [1, 7] | further results
1 | O[C@H]1C=Cc2c(cc3ccc4cccc5ccc2c3c45)[C@@H]1O (racemic) [7,8-dihydrodiol, (±) trans-benzo[a]pyrene-7,8-dihydrodiol] | 10.53 ± 9.26 fg BaP/mL×h | 28.04 ± 34.04 fg BaP/mL×h | 10.53 ± 9.26 fg BaP/mL×h | 2.54 ± 2.07 fg BaP/mL | 2.25 ± 0.55 h | 2.3 ± 1.2 h | 28.04 ± 34.04 fg BaP/mL×h | 4.12 ± 3.04 fg BaP/mL | 4.72 ± 4.18 h | 1.7 ± 0.8 h | –
2 | Oc1ccc2ccc3c4ccccc4cc4ccc1c2c43 [3-OH] | 5.90 ± 4.33 fg BaP/mL×h | 9.99 ± 7.43 fg BaP/mL×h | 5.90 ± 4.33 fg BaP/mL×h | 2.00 ± 1.03 fg BaP/mL | 1.59 ± 0.36 h | 2.2 ± 0.8 h | 9.99 ± 7.43 fg BaP/mL×h | 4.85 ± 3.31 fg BaP/mL | 1.85 ± 0.56 h | 1.7 ± 0.8 h | –
3 | Oc1ccc2cc3ccc4cccc5ccc(c2c1)c3c45 [9-OH] | 0.74 ± 0.82 fg BaP/mL×h | 3.40 ± 3.83 fg BaP/mL×h | 0.74 ± 0.82 fg BaP/mL×h | 0.66 ± 0.38 fg BaP/mL | 1.40 ± 0.49 h | 2.0 ± 0.7 h | 3.40 ± 3.83 fg BaP/mL×h | 2.32 ± 2.36 fg BaP/mL | 1.33 ± 0.39 h | 1.4 ± 0.7 h | –
4 | c1ccc2c(c1)ccc1ccccc12 [Phe, phenanthrene] | – | – | – | – | – | – | – | – | – | – | Ki [2]: 12.6 µM; type of inhibition of hCYP1A2 ([2]; Lineweaver-Burk plot): competitive
5 | Cc1cccc2c1ccc1cc(C(C)C)ccc12 [Retene, 7-isopropyl-1-methylphenanthrene] | – | – | – | – | – | – | – | – | – | – | mutagenicity [3]: negative
6 | c1ccc2c(c1)cc1ccc3cccc4ccc2c1c34 [[^14C]-BaP, benzo[a]pyrene] | – | – | – | – | – | – | – | – | – | – | Cl ([1]; both, human, in vivo): 3707 ± 2267 L/h; Vd ([1]; both, human, in vivo): 17550 ± 9725 L; half-life ([1]; both, human, in vivo, T1/2): 4.78 ± 4.45 h; Tmax ([1]; both, human, in vivo, Tmax): 1.1 ± 1.1 h; half-life ([1]; both, human, in vivo, po, T1/2 in blood): 1.1 ± 1.1 h; AUC ([1]; human, in vivo): 17.88 ± 9.56 fg BaP/mL×h; AUC(0,∞) ([1]; human, in vivo): 17.88 ± 9.56 fg BaP/mL×h
